The text below walks through data of ChEMBL document CHEMBL2069300 (J Med Chem, 2012).

≈ marks a conversion by molar mass, not a printed value.

The first series in a line: Aqueous solubility of the compound in phosphate buffered saline at pH 7.4. The series is classed as physicochemical. The following applies: buffer.
In the case of `COc1ccc(OC)c(S(=O)(=O)ON2C(=O)c3ccccc3C2=O)c1`, the solubility amounted to 453.9 µM (≈ 165 µg/mL). For the compound `Nc1nc2ccc(S(=O)(=O)N3CCCCC3)cc2s1`, the solubility was determined as 338.8 µM (≈ 101 µg/mL).

Compound `CCc1ccc(S(=O)(=O)ON2C(=O)c3ccccc3C2=O)cc1` gave a solubility of 462 µM (≈ 153 µg/mL). The solubility values of the last two compounds are within 1.5-fold of each other. `COC(=O)c1ccc2c(c1)C(C)(C)C(/C=C/c1ccc(O)cc1)=[N+]2C` returned a solubility of 218.7 µM. On to `Cc1cccc(N2COc3ccc4ccccc4c3C2)c1`, for which the solubility stood at 377.4 µM (≈ 104 µg/mL). Still for that read-out and setting: next, `CCOc1ccc(/C=C/C2=[N+](C)c3ccc(C(=O)OC)cc3C2(C)C)cc1`: 0.7 µM; `COC(=O)c1ccc(/C=C/C2=[N+](C)c3ccc(OC)cc3C2(C)C)cc1`: 0.2 µM.

Compound `CCCS(=O)(=O)c1oc(-c2cccs2)nc1S(=O)(=O)c1ccc(F)cc1` showed a solubility of 21.9 µM (≈ 9.1 µg/mL). For `CCS(=O)(=O)c1oc(-c2cccs2)nc1S(=O)(=O)c1ccccc1`, the solubility is 49.9 µM (≈ 19.1 µg/mL). In the case of `CC(C)CS(=O)(=O)c1oc(-c2cccs2)nc1S(=O)(=O)c1ccc(F)cc1`, the solubility was found to be 17.6 µM (≈ 7.56 µg/mL). `CC(C)S(=O)(=O)c1oc(-c2cccs2)nc1S(=O)(=O)c1ccccc1` displayed a solubility of 34.2 µM (≈ 13.6 µg/mL). This solubility lies about 1.9-fold higher than the previous one. Take `Cc1c(C=O)c(C(=O)O)c(C)n1Cc1ccc(Cl)cc1`: the solubility came to 576 µM (≈ 168 µg/mL). `O=Cc1nc2ccccc2n1Cc1ccc2ccccc2c1` returned a solubility of 42.1 µM (≈ 12.1 µg/mL).

As to `O=Cc1nc2ccccc2n1Cc1ccc(Cl)cc1Cl`, the solubility was 15.3 µM (≈ 4.67 µg/mL).

`COCC(=O)Oc1c(Sc2ccc(Cl)cc2)c(C)nn1-c1ccccc1` registered a solubility of 493 µM (≈ 192 µg/mL).

As to `CCCCNC(=O)Cn1sc2nc(C)cc(C)c2c1=O`, the solubility worked out at 487 µM (≈ 143 µg/mL).

In turn, `COc1ccc(/C=C/C2=[N+](C)c3ccc(OC)cc3C2(C)C)cc1` displayed a solubility of 273.3 µM. This solubility is about 1.8-fold lower than that of the compound before. For the compound `COC(=O)c1ccc2c(c1)C(C)(C)C(/C=C/c1ccc(OC)cc1)=[N+]2C`, the solubility is 0.1 µM. In turn, `Cc1[nH]c2ccccc2c1C(Nc1ccccc1)c1ccc(CCCO)cc1` (centres undefined) came in with a solubility of 503.4 µM (≈ 187 µg/mL).

The nature of the next series: Stability of the compound in water at neutral pH after 24 hrs. The series is classed as physicochemical. The following applies: buffer.
As to `Cc1[nH]c2ccccc2c1C(Nc1ccccc1)c1ccccc1` (centres undefined), the Stability result is listed as “Stable”.

On to `Cc1[nH]c2ccccc2c1C(Nc1ccccc1)c1ccc(Cl)cc1` (centres undefined), for which the Stability result was “Stable”.

Regarding `COc1ccc(C(Nc2ccccc2)c2c(C)[nH]c3ccccc23)cc1` (centres undefined), the Stability entry was “Stable”.

Turning to `Cc1ccc(C(Nc2ccccc2)c2c(C)[nH]c3ccccc23)cc1` (centres undefined), the Stability result was “Stable”.

In the case of `Cc1[nH]c2ccccc2c1C(Nc1ccccc1)c1ccc(N(C)C)cc1` (centres undefined), the Stability entry is “Stable”. For the compound `Cc1[nH]c2ccccc2c1C(Nc1ccccc1)c1ccc([N+](=O)[O-])cc1` (centres undefined), the Stability entry is recorded as “Stable”. Still for that read-out and setting: next, `Cc1[nH]c2ccccc2c1C(C)Nc1ccccc1` (centres undefined): “Stable”.

In the case of `Cc1[nH]c2ccccc2c1C(Nc1ccccc1)c1ccc2ccccc2c1` (centres undefined), the Stability entry is “Stable”.

`Cc1[nH]c2ccccc2c1C(Nc1ccccc1)c1ccc(CCCO)cc1` (centres undefined): the Stability result is reported as “Stable”. Take `Cc1[nH]c2ccccc2c1C(Nc1ccccc1)c1ccccc1Cl` (centres undefined): the Stability result is recorded as “Stable”. For `Cc1[nH]c2ccccc2c1C(Nc1ccc(Cl)cc1)c1ccccc1Cl` (centres undefined), the Stability entry is on record as “Stable”.

Consider `COc1ccc(NC(c2ccccc2Cl)c2c(C)[nH]c3ccccc23)cc1` (centres undefined), for which the Stability entry is recorded as “Stable”.

On to `Cc1ccc(NC(c2ccccc2Cl)c2c(C)[nH]c3ccccc23)cc1` (centres undefined), for which the Stability entry was “Stable”. In the case of `Cc1[nH]c2ccccc2c1C(Nc1ccc(N(C)C)cc1)c1ccccc1Cl` (centres undefined), the Stability result was “Stable”. The same measure, in the same setting: next, `Cc1[nH]c2ccccc2c1C(Nc1ccc([N+](=O)[O-])cc1)c1ccccc1Cl` (centres undefined): “Stable”; `Cc1[nH]c2ccccc2c1C(Nc1ccc(C(F)(F)F)cc1)c1ccccc1Cl` (centres undefined): “Stable”. In the case of `COc1ccccc1NC(c1ccccc1Cl)c1c(C)[nH]c2ccccc12` (centres undefined), the Stability entry is “Stable”. With `Cn1cc(C(Nc2ccccc2)c2ccccc2Cl)c2ccccc21` (centres undefined), the Stability entry is on record as “Stable”.

As for `Clc1ccccc1C(Nc1ccccc1)c1c[nH]c2ccccc12` (centres undefined), the Stability entry is recorded as “Stable”.

`Cc1[nH]c2ccccc2c1C(Sc1ccccc1)c1ccccc1Cl` (centres undefined): the Stability result was “Stable”.

One may read the solubility as how much of the substance goes into solution per volume.
